Assay results: patent publication US20260315494A1, “TREATMENT OF BREAST TISSUE” (Havah Therapeutics Pty Ltd, priority 2023, published 2026)
Several values for one entry are separate records, joined by “and”; a condition that tells them apart may be missing. Equal entries are not always repeated.

Experiments:
[1] = test system: AR/GATA3; details: Hosseinzadeh 2024; cited from earlier work
[2] = test system: aromatase; details: increasing DHT in the breast, Perel; cited from earlier work
[3] = test system: endogenous AR pathways / ER-mediated transcriptional activity; details: human explant tissue and breast cancer cell lines; cited from earlier work
[4] = test system: PCa cells; details: cited from earlier work
[5] = test system: 5α-reductase; details: increasing DHT in the breast, McNamara 2014; cited from earlier work
[6] = test system: human MYC; assay: Western blot of MYC in breast cancer explants treated with DHT; format: cell-based; details: for MYC Western blot ratio to beta-Actin / MYC Western blot ratio to beta-Actin, average: 24 h
Description: (§1) To evaluate the effect of DHT on breast cancer tissue, 3 primary tumours were examined in the presence of a low anastrozole level of 5 nM employing a modification of the method described by Jankovic-Karasoulos T. et al., 2008.
(§2) The 3 explant invasive breast carcinomas were examined for expression of mTOR and c-Myc and response to exposure to DHT by Western blotting. […] The band density was measured by densitometry, using Image Master VDS and Image Quant Analysis Software (Amersham Pharmacia Biotech, Hong Kong). The relative protein levels of mTOR or MYC and b-actin in the original total protein lysate from the breast preparations were obtained. mTOR or MYC protein expression was normalized to beta-actin protein expression. Immunizing host antibodies were produced with a synthetic peptide derived from the sequence of human mTOR or MYC, purified by peptide affinity chromatography and confirmed using control peptides. The results of the Western blot analysis for mTOR or MYC proteins in the 3 explant samples at baseline and after 24 hours of culture are shown in Table 3 and Table 4 for mTOR or MYC respectively. Cell lysates were immunoblotted with antibodies to mTOR or MYC. The experiment was performed twice with similar results. Data are expressed relative to beta-actin.

[7] = test system: androgen receptor (AR); details: tumoural DHT from 1 nM up to 10 nM, Hickey 2021; cited from earlier work
[8] = test system: human mTOR; assay: Western blot of mTOR in breast cancer explants treated with DHT; format: cell-based; details: for mTOR Western blot ratio to beta-Actin, average: average of 3 patients; for mTOR Western blot ratio to beta-Actin, average / mTOR Western blot ratio to beta-Actin: 5 nM anastrozole, 24 h; for mTOR Western blot ratio to beta-Actin: individual patient
Description: as §1, §2

[9] = Single-dose pharmacokinetics of T+Ai pellet implant (80 mg testosterone + 4 mg anastrozole, subcutaneous); details: for concentration at 1 h: 1 h post-dose; for concentration at 2 h: 2 h post-dose; for concentration at 4 h: 4 h post-dose; for concentration at 8 h: 8 h post-dose; for concentration at 12 h: 12 h post-dose; for concentration at 24 h: 24 h post-dose; for concentration at 72 h: 72 h post-dose; for concentration at 1680 h: 1680 h post-dose; for concentration at 2016 h: 2016 h post-dose
Description: The premenopausal women were aged between 35 and 55 years of age with a BMI range of 20-30 kg/m^2. […] The implant was intended to be left in situ and was expected to be almost completely absorbed within three months following insertion.
A total of 11 subjects were dosed with the implant and included in the safety analysis set. All 11 subjects were included in the pharmacokinetics (PK) analysis set.
(NB: the sample collection time point at 6 hours post-dose was added for the third and subsequent subject and so serum measurements were not determined for the first two subjects as noted below).
Patients seeking treatment with the T+Ai for reduction in high MBD were eligible for the study. Following successful screening, subjects attended the Wellend Health Clinic for dosing. The trial was designed to dose all subjects while in the luteal phase of their menstrual cycle to avoid the highly changing hormonal environment of the follicular phase. Following insertion of the implant, PK blood sampling was carried out for a duration of three months (see below). Briefly, samples were taken repeatedly on the day of dosing, daily during the first week, weekly for the next four weeks and every second week during the last eight weeks of a total sampling period of three months.
The sampling schedule was revised with the addition of one blood sample (at 6 hours post-dose as discussed above), and no adjustment of the timing of existing time points was made. The duration of sampling was not extended.
Following dosing on Day 1, blood samples were taken pre-dose (within one hour of dosing) and at 1, 2, 4, 6, 8 and 12 hours. Participants returned for a blood sample to be taken at 9 am in the morning on Days 2, 3, 4, 5, 8, 15, 22, 29, 43, 57, 71 and 85.

[10] = test system: CRPC; details: with a CDK4/6 inhibitor, Han 2022; cited from earlier work
[11] = test system: breast tissue; details: high dose androgen (testosterone), Raths 2023; cited from earlier work
[12] = test system: breast; details: injected prior to breast cancer surgery; cited from earlier work
[13] = on the basis of the present results
[14] = human, in vivo, sc, 80 mg, Measured serum testosterone, GeoMean, geometric mean
[15] = human, in vivo, sc, 80 mg, Measured serum testosterone, mean
[16] = human, in vivo, sc, 80 mg, Measured serum testosterone, median

SMILES: C[C@]12CCC(=O)C[C@@H]1CC[C@@H]1[C@@H]2CC[C@]2(C)[C@@H](O)CC[C@@H]12 [DHT, 5α-dihydrotestosterone]
- AR/GATA3 binding [1]: induces AR/GATA3 binding
- aromatase in breast tissue [2]: down regulation of aromatase
- ER-mediated transcriptional activity [3]: can activate endogenous AR pathways to inhibit ER-mediated transcriptional activity
- c-Myc expression associated with AR dimer ([4]; elevated DHT levels): reduction in c-Myc expression
- mTOR activity associated with AR monomer ([4]; low level DHT): elevated mTOR activity
- 5α-reductase in breast tissue [5]: up regulation of 5α-reductase
- Myc expression in words ([6]; 0.1 nM DHT): markedly elevated
- suppression of c-Myc ([6]; 0.1 nM DHT): unable to suppress c-Myc
- MYC Western blot ratio to beta-Actin ([6]; 0.1 nM DHT, individual patient, 5 nM anastrozole): 1.01 and 1.23
- Myc expression in words ([6]; 1 nM DHT): barely discernable
- MYC Western blot ratio to beta-Actin ([6]; 1 nM DHT, individual patient, 5 nM anastrozole): 0.02 and 0.06
- Myc expression in words ([6]; 10 nM DHT): essentially not detected
- MYC Western blot ratio to beta-Actin ([6]; 10 nM DHT, individual patient, 5 nM anastrozole): 0.05 and 0.04
- MYC Western blot ratio to beta-Actin ([6]; 0.0001 µM): 0.39
- MYC Western blot ratio to beta-Actin, average ([6]; 0.0001 µM): 1.01
- MYC Western blot ratio to beta-Actin ([6]; 0.001 µM): 0.04
- MYC Western blot ratio to beta-Actin, average ([6]; 0.001 µM): 0.04
- MYC Western blot ratio to beta-Actin ([6]; 0.01 µM): 0.03
- MYC Western blot ratio to beta-Actin, average ([6]; 0.01 µM): 0.04
- suppression of c-Myc ([6]; intra-tumoural DHT from 1 to 10 nM): results in suppression of c-Myc
- DHT concentration required for suppression of cMyc [6, 13]: at least 1 nM
- AR tumour suppressor induction [7]: can induce androgen receptor (AR) to become a tumour suppressor of estrogen receptor (ER) positive breast cancer
- mTOR expression in words ([8]; 0.1 nM DHT): markedly elevated
- mTOR Western blot ratio to beta-Actin, average ([8]; 0.1 nM DHT): 1.01
- mTOR Western blot ratio to beta-Actin ([8]; 0.1 nM DHT): 0.81 and 1.01 and 1.23
- mTOR expression in words ([8]; 1 nM DHT): barely discernable
- mTOR Western blot ratio to beta-Actin, average ([8]; 1 nM DHT): 0.04
- mTOR Western blot ratio to beta-Actin ([8]; 1 nM DHT): 0.04 and 0.02 and 0.06
- mTOR expression in words ([8]; 10 nM DHT): essentially not detected
- mTOR Western blot ratio to beta-Actin, average ([8]; 10 nM DHT): 0.04
- mTOR Western blot ratio to beta-Actin ([8]; 10 nM DHT): 0.03 and 0.05 and 0.04
- DHT concentration required to inhibit induction of mTOR activity [8, 13]: at least 1 nM
- serum DHT ([9]; most samples): not measurable in most samples

SMILES: C[C@]12CC[C@H]3[C@@H](CCC4=CC(=O)CC[C@@]43C)[C@@H]1CC[C@@H]2O [Testosterone, testosterone]
- efficacy of high-testosterone treatment with CDK4/6 inhibitor [10]: enhanced by a CDK4/6 inhibitor
- breast ductal structures [11]: breast ductal structures shrunk
- average serum testosterone concentration at 12 weeks ([9]; 12 weeks post-dose, 120960 min): 0.8 ng/mL
- increase in serum testosterone compared with baseline ([9]; all subjects, 12 weeks): sustained in all subjects at 12 weeks
- average serum testosterone at baseline ([9]; baseline, before implant): 0.2 ng/mL
- Measured serum testosterone, GeoMean ([9]; geometric mean, pre-dose): 0.19 ng/mL
- Tmax ([9]; human, in vivo, sc, 80 mg): 6 to 12 h
- concentration at 1 h [9, 14]: 0.49 ng/mL
- concentration at 2 h [9, 14]: 0.6 ng/mL
- concentration at 4 h [9, 14]: 0.94 ng/mL
- concentration at 6 h ([9]; human, in vivo, sc, 80 mg, Measured serum testosterone, GeoMean, geometric mean, 6 h post-dose): 2.53 ng/mL
- concentration at 8 h [9, 14]: 3.29 ng/mL
- concentration at 12 h [9, 14]: 3.36 ng/mL
- concentration at 24 h [9, 14]: 2.39 ng/mL
- concentration at 72 h [9, 14]: 1.63 ng/mL
- concentration at 1680 h [9, 14]: 0.99 ng/mL
- concentration at 1680 h ([9]; human, in vivo, sc, 80 mg, Measured serum testosterone, individual subject): 0.791 ng/mL
- concentration at 1 h [9, 15]: 0.55 ng/mL
- concentration at 2 h [9, 15]: 0.73 ng/mL
- concentration at 4 h [9, 15]: 1.43 ng/mL
- concentration at 8 h [9, 15]: 3.55 ng/mL
- concentration at 12 h [9, 15]: 3.43 ng/mL
- concentration at 24 h [9, 15]: 2.45 ng/mL
- concentration at 48 h ([9]; human, in vivo, sc, 80 mg, Measured serum testosterone, mean, 48 h post-dose): 1.83 ng/mL
- concentration at 72 h [9, 15]: 1.73 ng/mL
- concentration at 168 h ([9]; human, in vivo, sc, 80 mg, Measured serum testosterone, mean, 168 h post-dose): 1.53 ng/mL
- concentration at 504 h ([9]; human, in vivo, sc, 80 mg, Measured serum testosterone, mean, 504 h post-dose): 2.26 ng/mL
- concentration at 1344 h ([9]; human, in vivo, sc, 80 mg, Measured serum testosterone, mean, 1344 h post-dose): 1.25 ng/mL
- concentration at 1680 h [9, 15]: 1 ng/mL
- concentration at 2016 h [9, 15]: 0.83 ng/mL
- concentration at 1 h [9, 16]: 0.47 ng/mL
- concentration at 2 h [9, 16]: 0.51 ng/mL
- concentration at 4 h [9, 16]: 0.92 ng/mL
- concentration at 1008 h ([9]; human, in vivo, sc, 80 mg, Measured serum testosterone, median, 1008 h post-dose): 1.4 ng/mL
- concentration at 1680 h [9, 16]: 1 ng/mL
- concentration at 2016 h [9, 16]: 0.85 ng/mL
- Measured serum testosterone, mean ([9]; mean, pre-dose): 0.21 ng/mL
- Measured serum testosterone, median ([9]; median, pre-dose): 0.19 ng/mL
- average Cmax, serum testosterone ([9]; serum): 4.1 ng/mL
- median Tmax for serum testosterone ([9]; serum, post-dose): 8 h

SMILES: C[C@]12CCC(=O)C[C@@H]1CC[C@@H]1[C@@H]2CC[C@]2(C)[C@@H](O)CC[C@@H]12 [radioactive DHT]
- accumulation of radioactive DHT [12]: initially accumulated in the fat of the breast then strongly accumulated in the malignancy
